The values below are quoted from earlier work in US20250268885A1, “ORAL COMPOSITION COMPRISING NICOTINAMIDE” (CONARIS Research Institute AG, priority 2022, published 2025).

The conditions of this data set: sources collected in PubChem.

Take `NC(=O)c1cccnc1` [Nicotinamide, nicotinamide]: the “solubility relative to diclofenac sodium” value is on record as “several orders of magnitude higher”.
